Test results: US20100267561A1, “HERBICIDAL PYRIDAZINONE DERIVATIVES” (priority 2007, published 2010)

Experiments:
Type in all cases: in vivo
[1] = test system: goosegrass (Eleusine indica); test: Test B pre-/postemergence plant response; details: for Goosegrass plant response rating: 8 g ai/ha
Summary of the method: (§1)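 Preemergence and postemergence (plants 2-18 cm, 1- to 4-leaf stage) applications used test chemicals in a non-phytotoxic solvent with surfactant. Plants were held in a greenhouse 13 to 15 days, then rated visually against controls on a 0-100 scale (0 no effect, 100 complete control).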

[2] = test system: lambsquarters (Chenopodium album); test: Test B pre-/postemergence plant response
Summary of the method: as §1

[3] = test system: giant foxtail (Setaria faberii); test: Test B pre-/postemergence plant response; details: for Foxtail, Giant plant response rating: 8 g ai/ha
Summary of the method: as §1

[4] = test system: wheat (Triticum aestivum); test: Test B pre-/postemergence plant response; details: for Wheat plant response rating: 8 g ai/ha
Summary of the method: as §1

wild oat (Avena fatua) = test: Test B pre-/postemergence plant response; details: for Oat, Wild plant response rating: 8 g ai/ha
Summary of the method: as §1

[5] = test system: large crabgrass (Digitaria sanguinalis); test: Test B pre-/postemergence plant response; details: for Crabgrass, Large plant response rating: 8 g ai/ha
Summary of the method: as §1

[6] = test system: blackgrass (Alopecurus myosuroides); test: Test B pre-/postemergence plant response; details: for Blackgrass plant response rating: 8 g ai/ha
Summary of the method: as §1

[7] = test system: catchweed bedstraw (Galium aparine); test: Test B pre-/postemergence plant response; details: Preemergence
Summary of the method: as §1

[8] = test system: johnsongrass (Sorghum halepense); test: Test B pre-/postemergence plant response; details: for Johnsongrass plant response rating: 8 g ai/ha
Summary of the method: as §1

[9] = test system: common ragweed (Ambrosia elation); test: Test B pre-/postemergence plant response; details: for Ragweed plant response rating: 8 g ai/ha
Summary of the method: as §1

[10] = test system: cocklebur (Xanthium strumarium); test: Test B pre-/postemergence plant response; details: for Cocklebur plant response rating: 8 g ai/ha
Summary of the method: as §1

[11] = test system: yellow nutsedge (Cyperus esculentus); test: Test B pre-/postemergence plant response; details: for Nutsedge, Yellow plant response rating: 8 g ai/ha
Summary of the method: as §1

[12] = test system: common (oilseed) sunflower (Helianthus annuus); test: Test B pre-/postemergence plant response; details: Preemergence
Summary of the method: as §1

[13] = test system: windgrass (Apera spica-venti); test: Test B postemergence plant response; details: for Plant response rating, Windgrass: Postemergence
Summary of the method: (§2)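 Postemergence greenhouse test; plants at 2 to 18 cm (1- to 4-leaf stage) given formulated test chemical, held 13 to 15 days, then visually rated against untreated controls on a 0 (no effect) to 100 (complete control) scale; dash means no result.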

[14] = test system: winter barley (Hordeum vulgare); test: Test B postemergence plant response; details: for Plant response rating, Barley: Postemergence
Summary of the method: as §2

[15] = Postemergence, 16 g ai/ha, scale 0 to 100
[16] = Postemergence, 31 g ai/ha, scale 0 to 100, 0 no effect, 100 complete control
[17] = Postemergence, 62 g ai/ha, scale 0 to 100
[18] = Preemergence, 16 g ai/ha, scale 0 to 100 (0 no effect, 100 complete control)
[19] = Preemergence, 31 g ai/ha, 0 to 100 scale, 0 no effect, 100 complete control
[20] = Preemergence, 62 g ai/ha, scale 0 to 100
[21] = 8 g ai/ha, postemergence, 0-100 scale
[22] = 31 g ai/ha, 0 to 100 scale, 0 no effect, 100 complete control
[23] = 31 g ai/ha, scale 0 to 100, 0 no effect, 100 complete control

CCc1cc(-c2ccc(C(F)(F)F)cc2)nn1-c1c(OS(C)(=O)=O)cnn(C)c1=O [Compound 19]
80: Plant response rating, Goosegrass [1, 15] | Plant response rating, Goosegrass [1, 16] | Crabgrass, Large plant response rating ([5]; postemergence, 0-100 scale) | Blackgrass plant response rating ([6]; postemergence, 0-100 scale) | Plant response rating, Johnsongrass [8, 15] | Johnsongrass plant response rating ([8]; Preemergence, scale 0 to 100)
30: Plant response rating, Nutsedge, Yellow [11, 17]
85: Plant response rating, Wheat [4, 16] | Plant response rating, Crabgrass, Large [5, 15] | Plant response rating, Blackgrass [6, 15]
98: Plant response rating, Wheat [4, 17] | Plant response rating, Oat, Wild (wild oat (Avena fatua); [15])
10: Plant response rating, Wheat [4, 18]
90: Plant response rating, Goosegrass [1, 17] | Plant response rating, Wheat [4, 19] | Oat, Wild plant response rating (wild oat (Avena fatua); postemergence, 0-100 scale) | Plant response rating, Blackgrass [6, 16] | Windgrass plant response rating [13, 21] | Plant response rating, Barley ([14]; 62 g ai/ha, scale 0 to 100)
5: Plant response rating, Barley ([14]; 16 g ai/ha, scale 0 to 100, 0 no effect, 100 complete control) | Plant response rating, Barley [14, 23]
70: Foxtail, Giant plant response rating ([3]; Preemergence, scale 0 to 100)
0: Goosegrass plant response rating ([1]; Preemergence, scale 0 to 100) | Lambsquarters plant response rating [2, 21] | Plant response rating, Lambsquarters [2, 15] | Plant response rating, Lambsquarters [2, 16] | Plant response rating, Lambsquarters [2, 17] | Plant response rating, Lambsquarters [2, 18] | Plant response rating, Lambsquarters [2, 19] | Wheat plant response rating ([4]; postemergence, 0-100 scale) | Wheat plant response rating ([4]; Preemergence, scale 0 to 100) | Plant response rating, Galium [7, 22] | Plant response rating, Galium ([7]; 62 g ai/ha, scale 0 to 100) | Galium plant response rating ([7]; 8 g ai/ha, scale 0 to 100) | Ragweed plant response rating ([9]; postemergence, 0-100 scale) | Plant response rating, Ragweed [9, 15] | Plant response rating, Ragweed [9, 16] | Plant response rating, Ragweed [9, 17] | Plant response rating, Ragweed [9, 18] | Plant response rating, Ragweed [9, 19] | Plant response rating, Ragweed [9, 20] | Ragweed plant response rating ([9]; Preemergence, scale 0 to 100) | Cocklebur plant response rating ([10]; postemergence, 0-100 scale) | Plant response rating, Cocklebur [10, 15] | Plant response rating, Cocklebur [10, 16] | Plant response rating, Cocklebur [10, 17] | Plant response rating, Cocklebur [10, 18] | Plant response rating, Cocklebur [10, 19] | Plant response rating, Cocklebur [10, 20] | Cocklebur plant response rating ([10]; Preemergence, scale 0 to 100) | Nutsedge, Yellow plant response rating ([11]; postemergence, 0-100 scale) | Plant response rating, Nutsedge, Yellow [11, 15] | Plant response rating, Nutsedge, Yellow [11, 16] | Plant response rating, Nutsedge, Yellow [11, 18] | Plant response rating, Nutsedge, Yellow [11, 19] | Plant response rating, Nutsedge, Yellow [11, 20] | Nutsedge, Yellow plant response rating ([11]; Preemergence, scale 0 to 100) | Plant response rating, Sunflower ([12]; 16 g ai/ha, scale 0 to 100 (0 no effect, 100 complete control)) | Plant response rating, Sunflower [12, 22] | Plant response rating, Sunflower ([12]; 62 g ai/ha, scale 0 to 100) | Sunflower plant response rating ([12]; 8 g ai/ha, scale 0 to 100) | Barley plant response rating [14, 21]
100: Plant response rating, Goosegrass [1, 19] | Plant response rating, Goosegrass [1, 20] | Plant response rating, Foxtail, Giant [3, 15] | Plant response rating, Foxtail, Giant [3, 16] | Plant response rating, Foxtail, Giant [3, 17] | Plant response rating, Foxtail, Giant [3, 18] | Plant response rating, Foxtail, Giant [3, 19] | Plant response rating, Foxtail, Giant [3, 20] | Plant response rating, Oat, Wild (wild oat (Avena fatua); [16]) | Plant response rating, Oat, Wild (wild oat (Avena fatua); [17]) | Plant response rating, Crabgrass, Large [5, 17] | Plant response rating, Crabgrass, Large [5, 18] | Plant response rating, Crabgrass, Large [5, 19] | Plant response rating, Crabgrass, Large [5, 20] | Plant response rating, Blackgrass [6, 18] | Plant response rating, Blackgrass [6, 19] | Plant response rating, Blackgrass [6, 20] | Plant response rating, Johnsongrass [8, 16] | Plant response rating, Johnsongrass [8, 17] | Plant response rating, Johnsongrass [8, 18] | Plant response rating, Johnsongrass [8, 19] | Plant response rating, Johnsongrass [8, 20] | Plant response rating, Windgrass [13, 23] | Plant response rating, Windgrass ([13]; 62 g ai/ha, scale 0 to 100)
60: Plant response rating, Wheat [4, 15] | Oat, Wild plant response rating (wild oat (Avena fatua); Preemergence, scale 0 to 100)
75: Plant response rating, Goosegrass [1, 18] | Plant response rating, Oat, Wild (wild oat (Avena fatua); [18])
50: Goosegrass plant response rating ([1]; postemergence, 0-100 scale) | Crabgrass, Large plant response rating ([5]; Preemergence, scale 0 to 100)
95: Foxtail, Giant plant response rating ([3]; postemergence, 0-100 scale) | Plant response rating, Wheat [4, 20] | Plant response rating, Oat, Wild (wild oat (Avena fatua); [19]) | Plant response rating, Oat, Wild (wild oat (Avena fatua); [20]) | Plant response rating, Crabgrass, Large [5, 16] | Plant response rating, Blackgrass [6, 17] | Blackgrass plant response rating ([6]; Preemergence, scale 0 to 100) | Plant response rating, Windgrass ([13]; 16 g ai/ha, scale 0 to 100)
40: Plant response rating, Lambsquarters [2, 20] | Johnsongrass plant response rating ([8]; postemergence, 0-100 scale)
